According to US12209102B2, “Heterocyclic compounds and uses thereof” (Kumquat Biosciences Inc., priority 2022, dated 2025):

Legend:
K-Ras G12D = biological target: T1, K-Ras G12D (Homo sapiens, UniProt P01116, G12D); experiment: HTRF resonance energy transfer assay, K-Ras G12D / SOS1 interaction; assay type: biochemical; conditions: HTRF assay of Example 5; read-out: IC50 against K-Ras G12D
T1 construct: made in house; host or cells: E. coli BL21 (DE3)
How it was run: (§1)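 Read-out: HTRF 665/620 nm ratio (excitation 337 nm) after roughly 10 min or longer incubation, used to derive IC50. Donor anti-GST-Eu on GST-K-Ras; acceptor anti-6His-XL665 on His-hSOS1. Duplicate dose series from 10 μM down to 0.01 μM.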

K-Ras G12S = biological target: T2, K-Ras G12S (Homo sapiens, UniProt P01116, G12S); experiment: HTRF resonance energy transfer assay, K-Ras G12S / SOS1 interaction; assay type: biochemical; conditions: HTRF assay of Example 5; read-out: IC50 against K-Ras G12S
T2 construct: made in house; host or cells: E. coli BL21 (DE3)
How it was run: as §1

K-Ras G12V = biological target: T3, K-Ras G12V (Homo sapiens, UniProt P01116, G12V); experiment: HTRF resonance energy transfer assay, K-Ras G12V / SOS1 interaction; assay type: biochemical; conditions: HTRF assay of Example 5; read-out: IC50 against K-Ras G12V
T3 construct: made in house; host or cells: E. coli BL21 (DE3)
How it was run: as §1

K-Ras WT = biological target: T4, K-Ras WT (Homo sapiens, UniProt P01116); experiment: HTRF resonance energy transfer assay, K-Ras WT / SOS1 interaction; assay type: biochemical; conditions: HTRF assay of Example 5; read-out: IC50 against K-Ras WT
T4 construct: made in house; host or cells: E. coli BL21 (DE3)
How it was run: as §1

SW620 cells = experiment: Ras cellular assay, growth of cells with K-Ras G12V mutation (CellTiter-Glo); assay type: cell-based; conditions: Homo sapiens, SW-620; cell growth, Example 9, G12V mutation; read-out: IC50 against SW620 cells
Method: For example, this assay can be also used to assess a selective growth inhibition of a mutant Ras protein relative to a wildtype, or relative to a different mutant Ras protein.
SW620 (ATCC CCL-227) and Capan-1 (ATCC HTB-79) cell lines comprise a G12V mutation and can be used to assess Ras cellular signaling in vitro, e.g., in response to the compounds herein. SW620 culture medium is prepared with RPMI-1640 and 10% heat-inactivated FBS. Capan-1 culture medium is prepared with RPMI-1640 and 10% heat-inactivated FBS. A CellTiter-Glo (CTG) luminescent based assay (Promega) is used to assess growth of the cells, as a measurement of the ability of the compounds herein to inhibit Ras signaling in the cells. The cells (e.g., 800 per well) are seeded in their respective culture medium in standard tissue culture-treated 384-well format plates (Falcon #08-772-116) or ultra-low attachment surface 384-well format plates (S-Bio #MS-9384WZ). The day after plating, cells are treated with a dilution series (e.g., a 10 point 3-fold dilution series) of the compounds herein (e.g., approximately 40 μL final volume per well). Cell viability can be monitored (e.g., approximately 6 days later) according to the manufacturer's recommended instructions, where the CellTiter-Glo reagent is added (e.g., approximately 10 μL), vigorously mixed, covered, and placed on a plate shaker (e.g., approximately for 20 min) to ensure sufficient cell lysis prior to assessment of luminescent signal. The IC50 values are determined using the four parameter fit. The resulting IC50 value is a measurement of the ability of the compounds herein to reduce cell growth of Ras-driven cells (e.g., tumor cell lines) in vitro and/or in vivo.

T4 sequence (P01116 1-188 isoform P01116-2): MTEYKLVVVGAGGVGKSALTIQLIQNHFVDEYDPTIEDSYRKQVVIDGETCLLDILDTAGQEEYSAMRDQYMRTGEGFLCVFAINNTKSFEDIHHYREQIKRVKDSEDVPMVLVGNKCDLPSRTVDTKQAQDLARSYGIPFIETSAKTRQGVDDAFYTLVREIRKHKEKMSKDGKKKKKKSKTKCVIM
T1 sequence (P01116 1-188 isoform P01116-2 G12D): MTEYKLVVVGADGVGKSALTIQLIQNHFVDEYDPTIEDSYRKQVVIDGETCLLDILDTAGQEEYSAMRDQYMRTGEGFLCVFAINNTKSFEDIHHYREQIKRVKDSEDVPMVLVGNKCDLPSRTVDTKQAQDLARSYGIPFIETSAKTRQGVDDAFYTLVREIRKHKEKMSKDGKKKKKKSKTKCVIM
T3 sequence (P01116 1-188 isoform P01116-2 G12V): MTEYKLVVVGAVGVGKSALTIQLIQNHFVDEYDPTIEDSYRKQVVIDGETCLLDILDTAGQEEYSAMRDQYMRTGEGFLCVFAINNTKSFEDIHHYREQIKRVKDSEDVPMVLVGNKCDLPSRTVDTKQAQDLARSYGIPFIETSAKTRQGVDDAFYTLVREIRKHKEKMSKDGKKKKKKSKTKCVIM
T2 sequence (P01116 1-188 isoform P01116-2 G12S): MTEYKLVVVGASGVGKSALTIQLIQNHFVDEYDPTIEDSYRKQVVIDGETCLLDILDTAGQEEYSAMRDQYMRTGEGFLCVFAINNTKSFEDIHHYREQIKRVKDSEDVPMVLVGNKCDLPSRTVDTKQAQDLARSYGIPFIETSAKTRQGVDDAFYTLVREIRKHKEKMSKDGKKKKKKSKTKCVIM

| IC50 (K-Ras G12D) [nM] | IC50 (K-Ras G12S) [nM] | IC50 (K-Ras G12V) [nM] | IC50 (K-Ras WT) [nM] | IC50 (SW620 cells) [nM] | SMILES |
| --- | --- | --- | --- | --- | --- |
| < 100 | < 100 | < 100 | < 100 | < 5000 | CC1COc2c(Cl)c(-c3ccc(F)c4sc(N)c(C#N)c34)c(F)c3nc(OC[C@@]45CCCN4C[C@H](F)C5)nc(c23)N1CC(F)F (single isomer, unassigned) [Compound 616] |
| < 100 | < 100 | < 100 | < 100 | < 5000 | N#Cc1c(N)sc2c(F)ccc(-c3c(Cl)c4c5c(nc(OC[C@@]67CCCN6C[C@H](F)C7)nc5c3F)N(CC3CC3C#N)[C@@H](C3(O)CC3)CO4)c12 (single isomer, unassigned) [Compound 821] |
| < 100 | < 100 | < 100 | < 100 | < 5000 | CN(C)C(=O)C1CC(N2CCOc3c(Cl)c(-c4ccc(F)c5sc(N)c(C#N)c45)c(F)c4nc(OC[C@@]56CCCN5C[C@H](F)C6)nc2c34)C1 (single isomer, unassigned) [Compound 754] |
| < 100 | < 100 | < 100 | < 100 | < 5000 | Cn1nc(N)cc1CN1CCOc2c(Cl)c(-c3ccc(F)c4sc(N)c(C#N)c34)c(F)c3nc(OC[C@@]45CCCN4C[C@H](F)C5)nc1c23 [Compound 770, 2-amino-4-(4-((3-amino-1-methyl-1H-pyrazol-5-yl)methyl)-8-chloro-10-fluoro-2-(((2R,7aS)-2-fluorotetrahydro-1H-pyrrolizin-7a(5H)-yl)methoxy)-5,6-dihydro-4H-[1,4]oxazepino[5,6,7-de]quinazolin-9-yl)-7-fluorobenzo[b]thiophene-3-carbonitrile] |
| < 100 | < 100 | < 100 | < 100 | < 5000 | C[C@H]1COc2c(Cl)c(-c3ccc(F)c4sc(N)c(C#N)c34)c(F)c3nc(OC[C@@]45CCCN4C[C@H](F)C5)nc(c23)N1C1CCOC1 (stereo partly drawn) [Compound 750, 2-amino-4-((5S)-8-chloro-10-fluoro-2-(((2R,7aS)-2-fluorotetrahydro-1H-pyrrolizin-7a(5H)-yl)methoxy)-5-methyl-4-(tetrahydrofuran-3-yl)-5,6-dihydro-4H-[1,4]oxazepino[5,6,7-de]quinazolin-9-yl)-7-fluorobenzo[b]thiophene-3-carbonitrile] |
| < 100 | < 100 | < 100 | < 100 | < 5000 | N#Cc1c(N)sc2c(F)ccc(-c3c(Cl)c4c5c(nc(OC[C@@]67CCCN6C[C@H](F)C7)nc5c3F)N(CC3CC3C#N)[C@@H](C(F)F)CO4)c12 (stereo partly drawn) [Compound 853, 2-amino-4-((5R)-8-chloro-4-((2-cyanocyclopropyl)methyl)-5-(difluoromethyl)-10-fluoro-2-(((2R,7aS)-2-fluorotetrahydro-1H-pyrrolizin-7a(5H)-yl)methoxy)-5,6-dihydro-4H-[1,4]oxazepino[5,6,7-de]quinazolin-9-yl)-7-fluorobenzo[b]thiophene-3-carbonitrile] |
| < 100 | < 100 | < 100 | < 100 | < 5000 | N#Cc1c(N)sc2c(F)ccc(-c3c(Cl)c4c5c(nc(OC[C@@]67CCCN6C[C@H](F)C7)nc5c3F)N([C@H]3CNC[C@@H]3F)CCO4)c12 [Compound 1085, 2-amino-4-(8-chloro-10-fluoro-4-((3S,4S)-4-fluoropyrrolidin-3-yl)-2-(((2R,7aS)-2-fluorotetrahydro-1H-pyrrolizin-7a(5H)-yl)methoxy)-5,6-dihydro-4H-[1,4]oxazepino[5,6,7-de]quinazolin-9-yl)-7-fluorobenzo[b]thiophene-3-carbonitrile] |
| < 100 | < 100 | < 100 | < 100 | < 5000 | CC(O)C1COc2c(Cl)c(-c3ccc(F)c4sc(N)c(C#N)c34)c(F)c3nc(OC[C@@]45CCCN4C[C@H](F)C5)nc(c23)N1CC1CCNC1 (stereo partly drawn) [Compound 632, 2-amino-4-(8-chloro-10-fluoro-2-(((2R,7aS)-2-fluorotetrahydro-1H-pyrrolizin-7a(5H)-yl)methoxy)-5-(1-hydroxyethyl)-4-(pyrrolidin-3-ylmethyl)-5,6-dihydro-4H-[1,4]oxazepino[5,6,7-de]quinazolin-9-yl)-7-fluorobenzo[b]thiophene-3-carbonitrile] |
| < 100 | < 100 | < 100 | < 100 | < 5000 | CC1Oc2c(Cl)c(-c3ccc(F)c4sc(N)c(C#N)c34)c(F)c3nc(OC[C@@]45CCCN4C[C@H](F)C5)nc(c23)N(CC(F)F)[C@H]1C(C)(C)O (stereo partly drawn) [Compound 810, 2-amino-4-((5R)-8-chloro-4-(2,2-difluoroethyl)-10-fluoro-2-(((2R,7aS)-2-fluorotetrahydro-1H-pyrrolizin-7a(5H)-yl)methoxy)-5-(2-hydroxypropan-2-yl)-6-methyl-5,6-dihydro-4H-[1,4]oxazepino[5,6,7-de]quinazolin-9-yl)-7-fluorobenzo[b]thiophene-3-carbonitrile] |
| < 100 | < 100 | < 100 | < 100 | < 5000 | CN1c2nc(OC[C@@]34CCCN3C[C@H](F)C4)nc3c(F)c(-c4ccc(F)c5sc(N)c(C#N)c45)c(Cl)c(c23)OCC[C@H]1C1CC1 [Compound 1209, 2-amino-4-((5S)-9-chloro-5-cyclopropyl-11-fluoro-2-(((2R,7aS)-2-fluorotetrahydro-1H-pyrrolizin-7a(5H)-yl)methoxy)-4-methyl-4,5,6,7-tetrahydro-[1,5]oxazocino[4,3,2-de]quinazolin-10-yl)-7-fluorobenzo[b]thiophene-3-carbonitrile] |
| < 100 | < 100 | < 100 | < 100 | < 5000 | N#Cc1c(N)sc2c(F)ccc(-c3c(Cl)c4c5c(nc(OC[C@@]67CCCN6C[C@H](F)C7)nc5c3F)N(CC(F)F)[C@@H](C=C(F)F)CO4)c12 (single isomer, unassigned) [Compound 751] |
| < 100 | < 100 | < 100 | < 100 | < 5000 | CN1c2nc(OC[C@@]34CCCN3C[C@H](F)C4)nc3c(F)c(-c4ccc(F)c5sc(N)c(C#N)c45)c(Cl)c(c23)OCCC1CO (stereo partly drawn) [Compound 1217, 2-amino-4-(9-chloro-11-fluoro-2-(((2R,7aS)-2-fluorotetrahydro-1H-pyrrolizin-7a(5H)-yl)methoxy)-5-(hydroxymethyl)-4-methyl-4,5,6,7-tetrahydro-[1,5]oxazocino[4,3,2-de]quinazolin-10-yl)-7-fluorobenzo[b]thiophene-3-carbonitrile] |
| < 100 | < 100 | < 100 | < 100 | < 5000 | N#Cc1c(N)sc2c(F)ccc(-c3c(Cl)c4c5c(nc(OC[C@@]67CCCN6C[C@H](F)C7)nc5c3F)N(C3CCCC3O)CCO4)c12 (stereo partly drawn) [Compound 808, 2-amino-4-(8-chloro-10-fluoro-2-(((2R,7aS)-2-fluorotetrahydro-1H-pyrrolizin-7a(5H)-yl)methoxy)-4-(2-hydroxycyclopentyl)-5,6-dihydro-4H-[1,4]oxazepino[5,6,7-de]quinazolin-9-yl)-7-fluorobenzo[b]thiophene-3-carbonitrile] |

| SMILES | IC50 (K-Ras G12D) [nM] | IC50 (K-Ras G12S) [nM] | IC50 (K-Ras G12V) [nM] | IC50 (K-Ras WT) [nM] | IC50 (SW620 cells) [nM] |
| --- | --- | --- | --- | --- | --- |
| N#Cc1c(N)sc2c(F)ccc(-c3c(Cl)c4c5c(nc(OC[C@@]67CCCN6C[C@H](F)C7)nc5c3F)N(CC(F)F)[C@@H](CNC(=O)[C@H]3CN3)CO4)c12 [Compound 1053, (2R)-N-(((5S)-9-(2-amino-3-cyano-7-fluorobenzo[b]thiophen-4-yl)-8-chloro-4-(2,2-difluoroethyl)-10-fluoro-2-(((2R,7aS)-2-fluorotetrahydro-1H-pyrrolizin-7a(5H)-yl)methoxy)-5,6-dihydro-4H-[1,4]oxazepino[5,6,7-de]quinazolin-5-yl)methyl)aziridine-2-carboxamide] | < 100 | < 100 | < 100 | < 100 | < 5000 |
